The target in one assay is T1, nLucOGG1 in HeLa cells (Homo sapiens, UniProt O15527).
T1 construct: thermal shift read by NanoGlo luminescence
Briefly: Cellular Thermal Shift Assay to measure compound affinity for nLucOGG1 in HeLa cells (CETSA DTm). Type of assay: cell-based. The note with it: 10 μM compound, 37° C. 60 min, Tm vs DMSO control. The procedure, abridged:
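HeLa cells transiently nucleofected with N-terminal nLuc-OGG1a, used 48 h later; 25 k cells/well incubated with 10 μM compound or DMSO vehicle 60 min at 37° C, then heated 3 min across a 12-point 37-70° C gradient. NanoGlo luminescence normalized to 37° C, Boltzmann sigmoidal fit gives Tm; delta Tm relative to vehicle.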

A further assay has as its target hOGG1 (Homo sapiens, UniProt O15527). Briefly: Biochemical fluorescence assay to measure enzymatic activity of hOGG1 (OGG1/APEX IC50). More on the design: Protein His-hOGG1 (12-323) was prepared; His (N); host or cells: E. coli. The note with it: 1 nM OGG1+2 nM APEX+6 nM dsDNA (8-oxo-dG substrate); pH 7.5; RT 40 min; read-out: OGG1/APEX IC50. The procedure, abridged: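 His-hOGG1 (12-323, E. coli) at 1 nM with 2 nM hAPE1/APEX1, preincubated 20 min RT with compound. Then 6 nM 8-oxo-dG dsDNA substrate added, 40 min at RT in Tris pH 7.5, 100 mM KCl. TAMRA fluorescence (Ex520/Em600) converted to % inhibition vs controls; IC50 from 3-parameter fit of 10-point curve.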

The record followed here is US20260317356A1, “SMALL MOLECULE MODULATORS OF OGG1” (AZKARRA THERAPEUTICS, INC., priority 2023, published 2026).

T1 sequence (O15527 whole entry): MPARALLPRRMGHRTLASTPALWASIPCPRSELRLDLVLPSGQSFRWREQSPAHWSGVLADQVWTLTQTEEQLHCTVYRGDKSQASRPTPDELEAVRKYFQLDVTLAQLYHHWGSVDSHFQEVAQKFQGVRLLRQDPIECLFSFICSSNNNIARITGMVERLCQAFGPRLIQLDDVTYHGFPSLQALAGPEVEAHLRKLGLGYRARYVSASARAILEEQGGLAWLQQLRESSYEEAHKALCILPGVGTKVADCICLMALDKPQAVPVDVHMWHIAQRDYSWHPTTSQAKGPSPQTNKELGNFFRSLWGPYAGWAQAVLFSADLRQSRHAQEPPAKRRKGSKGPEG
Sequence of hOGG1 (O15527 12-323): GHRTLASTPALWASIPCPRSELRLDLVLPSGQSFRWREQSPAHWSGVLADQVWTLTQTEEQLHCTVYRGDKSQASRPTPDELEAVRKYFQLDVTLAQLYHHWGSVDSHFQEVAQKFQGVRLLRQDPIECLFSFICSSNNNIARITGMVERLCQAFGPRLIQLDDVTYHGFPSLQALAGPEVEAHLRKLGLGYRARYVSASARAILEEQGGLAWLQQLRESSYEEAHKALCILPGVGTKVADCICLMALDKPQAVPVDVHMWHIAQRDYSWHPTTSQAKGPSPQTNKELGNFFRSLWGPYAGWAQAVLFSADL

Consider `COc1cc(NC(=O)[C@H]2CC[C@@H](N3Cc4c(C)ccnc4NC3=O)CC2)ccc1C` [Example 41, (1s,4s)-N-(3-Methoxy-4-methylphenyl)-4-(5-methyl-2-oxo-1,2-dihydropyrido[2,3-d]pyrimidin-3(4H)-yl)cyclohexanecarboxamide], for which the thermal shift (ΔTm) (in general, the change in melting temperature against a reference sample) at 10 µM on nLucOGG1 in HeLa cells lay within 6 to 8 °C. Besides, the IC50 at hOGG1 was less than 100 nM.

In the case of `COc1cc(NC(=O)[C@H]2CC[C@@H](N3Cc4c(C)ccc(OCC5CNC5)c4NC3=O)CC2)ccc1C` [Example 44, (1s,4s)-4-(8-(Azetidin-3-ylmethoxy)-5-methyl-2-oxo-1,2-dihydroquinazolin-3(4H)-yl)-N-(3-methoxy-4-methylphenyl)cyclohexanecarboxamide], the ΔTm at 10 µM at nLucOGG1 in HeLa cells lay in the range of 8 to 10 °C. In addition, the IC50 on hOGG1 was less than 100 nM.

Regarding `COc1cc(NC(=O)[C@H]2CC[C@@H](N3Cc4c(C)ccc(OC5CNC5)c4NC3=O)CC2)ccc1C` [Example 45], the thermal shift (ΔTm) at 10 µM on nLucOGG1 in HeLa cells lay in the range of 8 to 10 °C. Besides, the IC50 on hOGG1 was less than 100 nM.

Turning to `COc1cc(NC(=O)[C@H]2CC[C@@H](N3Cc4c(C)ccc(OC)c4NC3=O)CC2)ccc1C` [Example 47, (1s,4s)-N-(3-Methoxy-4-methylphenyl)-4-(8-methoxy-5-methyl-2-oxo-1,2-dihydroquinazolin-3(4H)-yl)cyclohexanecarboxamide], the shift in melting temperature (ΔTm) at 10 µM at nLucOGG1 in HeLa cells lay in the range of 6 to 8 °C. Besides, the IC50 at hOGG1 was less than 100 nM.

`COc1cc(NC(=O)[C@H]2CC[C@@H](N3Cc4c(C)ccc(CN)c4NC3=O)CC2)ccc1C` [Example 58, (1s,4s)-4-(8-(aminomethyl)-5-methyl-2-oxo-1,2-dihydroquinazolin-3(4H)-yl)-N-(3-methoxy-4-methylphenyl)cyclohexanecarboxamide]: the ΔTm at 10 µM at nLucOGG1 in HeLa cells was 8 to 10 °C. The IC50 at hOGG1 was less than 100 nM.

On to `COc1cc(NC(=O)[C@H]2CC[C@@H](N3Cc4c(C)ccc(C#N)c4NC3=O)CC2)ccc1C` [Example 59, (1s,4s)-4-(8-cyano-5-methyl-2-oxo-1,2-dihydroquinazolin-3(4H)-yl)-N-(3-methoxy-4-methylphenyl)cyclohexanecarboxamide], for which the thermal shift (ΔTm) at 10 µM on nLucOGG1 in HeLa cells lay in the range of 8 to 10 °C. Further, on hOGG1, the IC50 is less than 100 nM.

Consider `COc1cc(NC(=O)[C@H]2CC[C@@H](N3Cc4ccccc4NC3=O)CC2)ccc1C` [Example 67, (1s,4s)-N-(3-methoxy-4-methylphenyl)-4-(2-oxo-1,2-dihydroquinazolin-3(4H)-yl)cyclohexanecarboxamide], for which the ΔTm at 10 µM at nLucOGG1 in HeLa cells lay in the range of 6 to 8 °C. Moreover, the IC50 at hOGG1 lay within 100 to 1000 nM.

With `COc1cc(NC(=O)[C@H]2CC[C@@H](N3Cc4c(C)cc(-c5nnco5)cc4NC3=O)CC2)ccc1C` [Example 92, (1s,4s)-N-(3-methoxy-4-methylphenyl)-4-(5-methyl-7-(1,3,4-oxadiazol-2-yl)-2-oxo-1,2-dihydroquinazolin-3(4H)-yl)cyclohexanecarboxamide], the ΔTm at 10 µM on nLucOGG1 in HeLa cells was 8 to 10 °C. In addition, at hOGG1, the IC50 is less than 100 nM.

Consider `COc1ccc(NC(=O)[C@H]2CC[C@@H](N3Cc4c(C)cc(NCCN(C)C)cc4NC3=O)CC2)cc1C` [Example 97, (1s,4s)-4-(7-(2-(dimethylamino)ethylamino)-5-methyl-2-oxo-1,2-dihydroquinazolin-3(4H)-yl)-N-(4-methoxy-3-methylphenyl)cyclohexanecarboxamide], for which the shift in melting temperature (ΔTm) at 10 µM at nLucOGG1 in HeLa cells is 8 to 10 °C. Further, the IC50 at hOGG1 is less than 100 nM.

Regarding `COc1ccc(NC(=O)[C@H]2CC[C@@H](N3Cc4c(C)cc(NCCN(C)C)cc4NC3=O)CC2)cc1C#N` [Example 99, (1s,4s)-N-(3-cyano-4-methoxyphenyl)-4-(7-(2-(dimethylamino)ethylamino)-5-methyl-2-oxo-1,2-dihydroquinazolin-3(4H)-yl)cyclohexanecarboxamide], on nLucOGG1 in HeLa cells, the shift in melting temperature (ΔTm) at 10 µM was 8 to 10 °C. In addition, the IC50 on hOGG1 is less than 100 nM.

`COc1cc(NC(=O)[C@H]2CC[C@@H](N3Cc4c(C)cc(N(C)C)cc4C3=O)CC2)ccc1C` [Example 135, (1s,4s)-4-(6-(Dimethylamino)-4-methyl-1-oxoisoindolin-2-yl)-N-(3-methoxy-4-methylphenyl)cyclohexane-1-carboxamide]: the shift in melting temperature (ΔTm) at 10 µM at nLucOGG1 in HeLa cells is 6 to 8 °C. Further, on hOGG1, the IC50 was less than 100 nM.

Take `COc1cc(NC(=O)[C@H]2CC[C@@H](N3Cc4c(C)ccc(C#N)c4C3=O)CC2)ccc1C` [Example 143, (1s,4s)-4-(7-Cyano-4-methyl-1-oxoisoindolin-2-yl)-N-(3-methoxy-4-methylphenyl)cyclohexanecarboxamide]: at nLucOGG1 in HeLa cells, the shift in melting temperature (ΔTm) at 10 µM is 6 to 8 °C. Further, on hOGG1, the IC50 is less than 100 nM.

For the compound `CNCCNc1cc(C)c2c(c1)C(=O)N([C@H]1CC[C@@H](C(=O)Nc3ccc(C)c(OC)c3)CC1)C2` [Example 193, (1s,4s)-N-(3-methoxy-4-methylphenyl)-4-(4-methyl-6-(2-(methylamino)ethylamino)-1-oxoisoindolin-2-yl)cyclohexanecarboxamide], at nLucOGG1 in HeLa cells, the ΔTm at 10 µM is greater than 10 °C. The IC50 on hOGG1 is less than 100 nM.

For `COc1ccc(NC(=O)[C@H]2CC[C@@H](N3Cc4c(C)cccc4C3=O)CC2)cc1C` [Example 227, (1s,4s)-N-(4-Methoxy-3-methylphenyl)-4-(4-methyl-1-oxoisoindolin-2-yl)cyclohexanecarboxamide], on nLucOGG1 in HeLa cells, the ΔTm at 10 µM fell in the range of 6 to 8 °C. Further, at hOGG1, the IC50 is 100 to 1000 nM.

On to `COc1ccc(NC(=O)[C@H]2CC[C@@H](N3Cc4c(C)cccc4C3=O)CC2)cc1C#N` [Example 239, (1s,4s)-N-(3-Cyano-4-methoxyphenyl)-4-(4-methyl-1-oxoisoindolin-2-yl)cyclohexanecarboxamide], for which, on nLucOGG1 in HeLa cells, the ΔTm at 10 µM lay in the range of 6 to 8 °C. Moreover, on hOGG1, the IC50 fell in the range of 100 to 1000 nM.

On to `COc1cc(NC(=O)[C@H]2CC[C@@H](N3Cc4c(C)cc(OCCN5CC(F)(F)C5)cc4C3=O)CC2)ccc1C` [Example 255, (1s,4s)-4-(6-(2-(3,3-Difluoroazetidin-1-yl)ethoxy)-4-methyl-1-oxoisoindolin-2-yl)-N-(3-methoxy-4-methylphenyl)cyclohexanecarboxamide], for which the ΔTm at 10 µM at nLucOGG1 in HeLa cells lay within 6 to 8 °C. Moreover, on hOGG1, the IC50 was 100 to 1000 nM.

On to `COc1ccc(NC(=O)[C@H]2CC[C@@H](N3Cc4c(C)cc(NCCN(C)C)cc4C3=O)CC2)cc1C` [Example 256, (1s,4s)-4-(6-(2-(Dimethylamino)ethylamino)-4-methyl-1-oxoisoindolin-2-yl)-N-(4-methoxy-3-methylphenyl)cyclohexanecarboxamide], for which the shift in melting temperature (ΔTm) at 10 µM at nLucOGG1 in HeLa cells is greater than 10 °C. Further, the IC50 at hOGG1 is less than 100 nM.

`COc1ccc(NC(=O)[C@H]2CC[C@@H](N3Cc4c(C)cc(NCCN(C)C)cc4C3=O)CC2)cc1C#N` [Example 259, (1s,4s)-N-(3-Cyano-4-methoxyphenyl)-4-(6-(2-(dimethylamino)ethylamino)-4-methyl-1-oxoisoindolin-2-yl)cyclohexanecarboxamide]: on nLucOGG1 in HeLa cells, the ΔTm at 10 µM lay in the range of 8 to 10 °C. Further, the IC50 on hOGG1 is less than 100 nM.

On to `COc1ccc(NC(=O)[C@H]2CC[C@@H](N3Cc4c(C)cc(NCCN(C)C)cc4C3=O)CC2)cc1Cl` [Example 260, (1s,4s)-N-(3-Chloro-4-methoxyphenyl)-4-(6-(2-(dimethylamino)ethylamino)-4-methyl-1-oxoisoindolin-2-yl)cyclohexanecarboxamide], for which the ΔTm at 10 µM at nLucOGG1 in HeLa cells is greater than 10 °C. Further, at hOGG1, the IC50 was less than 100 nM.

In the case of `COc1cc(NC(=O)[C@]2(C)CC[C@H](N3Cc4c(C)cccc4C3=O)CC2)ccc1C` [Example 277, (1s,4s)-N-(3-methoxy-4-methylphenyl)-1-methyl-4-(4-methyl-1-oxoisoindolin-2-yl)cyclohexane-1-carboxamide], at nLucOGG1 in HeLa cells, the ΔTm at 10 µM is 8 to 10 °C. For the same compound, the IC50 at hOGG1 lay within 100 to 1000 nM.
